Test results as given in US20250032456A1, “USE OF L-ERGOTHIONEINE TO AMELIORATE AND PREVENT AGE-RELATED VITREOUS DEGENERATION” (NANJING NUTRABUILDING BIO-TECH CO., LTD., priority 2021, published 2025).

How the values were obtained:
[1] = tested on: Reactive oxygen species (ROS) of rabbits' lens; assay: Reactive oxygen species quantified by fluorescence spectroscopy using 2',7'-dichlorofluorescein diacetate; format: in vivo, rabbit; conditions: 2 or 10 mg/kg/d by gavage for 7 months; compared with non-supplement group, ***p<0.001
Experimental: (§1) Fifteen young pigmented rabbits weighing 2.3-4.1 kg and aging 2.5-3 years were used in this experiment. At the onset of the investigation, each eye of every rabbit was examined by slit-lamp biomicroscopy and +60 diopter fundus lens through dilated pupils (2% atropine eye drops) to exclude any preexisting abnormalities. After slit-lamp examination, one drop of 0.5% proparacaine hydrochloride was applied for topic anesthesia, and then 0.1 ml of riboflavin (2×10^^−4 M) was injected through a Millipore filter unit into the central vitreous of both eyes, using a 30-gauge needle. All eyes were then irradiated with white light (1.06×10^15 photons sec-1 cm-2) generated by a carousel slide projector without a lens at a distance of 60 cm for 6 hours. During irradiation, the exposed eyes were frequently treated with topical balanced salt solution (BSS) to prevent corneal drying. […]
Antioxidant capacity of the lens was measured using an assay based on the ability of the sample to inhibit the oxidation of 2,2′-azino-di-[3-ethylbenzthiazoline sulfonate]+ (ABTS) by metmyoglobin. The amount of ABTS+ produced was measured in terms of the decrease in absorbance caused by the antioxidants in the sample. Reactive oxygen species (ROS) were quantified by fluorescence spectroscopy using 2′,7′-dichlorofluorescein diacetate.

rabbits' vitreous gel [2] = assay: Slit-lamp biomicroscopy of vitreous structure in rabbits with riboflavin/white-light induced vitreous liquefaction; format: in vivo, rabbit; conditions: 2 or 10 mg/kg/d by gavage once daily for 7 months, especially in higher dose
Experimental: as §1, with “drying. Their eyes were examined by using slit-lamp biomicroscopy next day, to confirm if they have serious vitreous liquefaction. They were randomly divided into three groups: (1) non-supplement group (Con, n=5); (2) L-ergothioneine supplement group with low dosage (L-ergothioneine, 2 mg/kg/d, n=5); (3) L-ergothioneine supplement group with high dosage (L-ergothioneine, 10 mg/kg/d, n=5). Some […] were administered L-ergothioneine once daily by gavage in normal saline solution for 7 months.” for “drying.”

rabbits' vitreous gel [3] = assay: Vitreous gel content by gel-liquid separation of rabbit vitreous samples; format: in vivo; conditions: 2 or 10 mg/kg/d by gavage for 7 months; compared with non-supplement group, ***p<0.001
Experimental: Fifteen young pigmented rabbits weighing 2.3-4.1 kg and aging 2.5-3 years were used in this experiment. At the onset of the investigation, each eye of every rabbit was examined by slit-lamp biomicroscopy and +60 diopter fundus lens through dilated pupils (2% atropine eye drops) to exclude any preexisting abnormalities. After slit-lamp examination, one drop of 0.5% proparacaine hydrochloride was applied for topic anesthesia, and then 0.1 ml of riboflavin (2×10^^−4 M) was injected through a Millipore filter unit into the central vitreous of both eyes, using a 30-gauge needle. All eyes were then irradiated with white light (1.06×10^15 photons sec-1 cm-2) generated by a carousel slide projector without a lens at a distance of 60 cm for 6 hours. During irradiation, the exposed eyes were frequently treated with topical balanced salt solution (BSS) to prevent corneal drying. Their eyes were examined by using slit-lamp biomicroscopy next day, to confirm if they have serious vitreous liquefaction. […] The weight of the vitreous gel was determined, and its percentage was calculated as follows: vitreous gel (%)=(separated vitreous gel wet wt (g)/initial vitreous wet wt (g))×100%.

**Q.** For `C[N+](C)(C)[C@@H](Cc1c[nH]c(=S)[nH]1)C(=O)[O-]` [L-ergothioneine], which “ROS value of rabbits' lens (FIG. 2)” value [1] is on record?
**A.** could scavenge chronic ROS directly and radically

**Q.** And the “rabbits' vitreous gel observed microscopically (slit-lamp biomicroscopy)” value (rabbits' vitreous gel [2])?
**A.** significantly increased

**Q.** And the “vitreous gel content (%) of the rabbits' eye (FIG. 1)” value (rabbits' vitreous gel [3])?
**A.** could alleviate vitreous depolymerization and liquefaction
